Values quoted from earlier work in patent US20190388365A1, “C[…] NEURO-DEGENERATIVE DISEASES AND SIDE-EFFECTS ASSOCIATED WITH COGNITION EFFECTING PHARMACEUTICALS” (priority 2015, published 2019).

System: patients receiving morphine
Conditions: limited clinical trials

For `NC(=O)C[S+]([O-])C(c1ccccc1)c1ccccc1` (racemic) [Modafinil, benzhydrylsulfinylacetamide], the “effect on sleepiness and confusion associated with morphine delivery” value is listed as “reverses the sleepiness and even confusion associated with morphine delivery”.
